In ChEMBL document CHEMBL1649369, “Novel 4-aryl-pyrido[1,2-c]pyrimidines with dual SSRI and 5-HT(1A) activity. part 3” (Eur J Med Chem, 2011):
The source made the active and inactive calls. The calls are words filed in the database; no cut-off is given here.

Key:
[1] = target: T1, 5-hydroxytryptamine receptor 1A (Rattus norvegicus, UniProt P19327); assay: Displacement of [3H]8-OH-DPAT from 5-HT1A receptor in rat hippocampus; format: tissue-based
T1 sequence (P19327 whole entry): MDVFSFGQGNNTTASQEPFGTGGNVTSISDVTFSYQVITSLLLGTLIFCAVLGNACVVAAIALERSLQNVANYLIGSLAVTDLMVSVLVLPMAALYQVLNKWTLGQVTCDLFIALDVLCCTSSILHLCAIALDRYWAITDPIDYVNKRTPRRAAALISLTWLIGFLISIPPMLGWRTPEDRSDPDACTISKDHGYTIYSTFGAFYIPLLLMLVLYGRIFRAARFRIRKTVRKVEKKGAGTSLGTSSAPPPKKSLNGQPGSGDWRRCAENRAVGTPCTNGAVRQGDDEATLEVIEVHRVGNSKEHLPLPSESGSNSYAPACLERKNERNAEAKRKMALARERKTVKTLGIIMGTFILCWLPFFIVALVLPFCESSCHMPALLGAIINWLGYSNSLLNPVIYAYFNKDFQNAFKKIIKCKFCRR

[2] = target: Sodium-dependent serotonin transporter (Rattus norvegicus, UniProt P31652); assay: Displacement of [3H]citalopram from SERT in rat cerebral cortex by liquid scintillation counting; format: tissue-based
Chain of Sodium-dependent serotonin transporter (P31652 whole entry): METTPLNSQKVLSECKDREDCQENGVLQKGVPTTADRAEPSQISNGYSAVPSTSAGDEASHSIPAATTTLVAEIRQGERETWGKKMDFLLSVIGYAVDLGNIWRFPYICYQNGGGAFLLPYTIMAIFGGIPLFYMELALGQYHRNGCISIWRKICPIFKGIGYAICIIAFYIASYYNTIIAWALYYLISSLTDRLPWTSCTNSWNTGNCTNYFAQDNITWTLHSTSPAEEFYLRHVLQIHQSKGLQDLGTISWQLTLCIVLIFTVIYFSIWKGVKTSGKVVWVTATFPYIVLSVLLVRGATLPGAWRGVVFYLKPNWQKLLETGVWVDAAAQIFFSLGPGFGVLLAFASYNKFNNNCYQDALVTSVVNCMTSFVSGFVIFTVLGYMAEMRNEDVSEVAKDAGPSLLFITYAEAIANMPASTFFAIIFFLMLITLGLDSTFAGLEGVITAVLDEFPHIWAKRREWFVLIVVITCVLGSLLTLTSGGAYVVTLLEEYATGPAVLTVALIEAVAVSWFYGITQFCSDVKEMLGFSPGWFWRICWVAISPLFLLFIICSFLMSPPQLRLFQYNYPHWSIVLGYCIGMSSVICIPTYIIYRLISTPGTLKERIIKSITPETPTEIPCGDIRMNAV

[3] = system: Mus musculus; assay: Effect on hypothermia in Swiss albino mouse assessed as change in rectal body temperature at 5 mg/kg, ip after 30 mins by inducible hypothermia test; format: functional, organism-based; set-up: dose 5 mg/kg
[4] = system: Mus musculus; assay: Effect on hypothermia in Swiss albino mouse assessed as change in rectal body temperature at 5 mg/kg, ip after 60 mins by inducible hypothermia test; format: functional, organism-based; set-up: dose 5 mg/kg
[5] = system: Mus musculus; assay: Effect on hypothermia in Swiss albino mouse assessed as change in rectal body temperature at 5 mg/kg, ip after 90 mins by inducible hypothermia test; format: functional, organism-based; set-up: dose 5 mg/kg
[6] = system: Mus musculus; assay: Effect on hypothermia in Swiss albino mouse assessed as change in rectal body temperature at 5 mg/kg, ip after 120 mins by inducible hypothermia test; format: functional, organism-based; set-up: dose 5 mg/kg
[7] = system: Mus musculus; assay: Effect on hypothermia in Swiss albino mouse assessed as change in rectal body temperature at 2.5 mg/kg, ip after 30 mins by inducible hypothermia test; format: functional, organism-based; set-up: dose 2.5 mg/kg
[8] = system: Mus musculus; assay: Effect on hypothermia in Swiss albino mouse assessed as change in rectal body temperature at 2.5 mg/kg, ip after 60 mins by inducible hypothermia test; format: functional, organism-based; set-up: dose 2.5 mg/kg
[9] = system: Mus musculus; assay: Effect on hypothermia in Swiss albino mouse assessed as change in rectal body temperature at 2.5 mg/kg, ip after 90 mins by inducible hypothermia test; format: functional, organism-based; set-up: dose 2.5 mg/kg
[10] = system: Mus musculus; assay: Effect on hypothermia in Swiss albino mouse assessed as change in rectal body temperature at 2.5 mg/kg, ip after 120 mins by inducible hypothermia test; format: functional, organism-based; set-up: dose 2.5 mg/kg
[11] = system: Mus musculus; assay: Effect on hypothermia in Swiss albino mouse assessed as change in rectal body temperature at 5 mg/kg, ip dosed 15 mins after 0.1 mg/kg, sc WAY 100635 challenge measured after 30 mins by inducible hypothermia test; format: functional, organism-based
[12] = system: Mus musculus; assay: Effect on hypothermia in Swiss albino mouse assessed as change in rectal body temperature at 5 mg/kg, ip dosed 15 mins after 0.1 mg/kg, sc WAY 100635 challenge measured after 60 mins by inducible hypothermia test; format: functional, organism-based
[13] = system: Mus musculus; assay: Antidepressant activity in Swiss albino mouse assessed as total immobility time at 2.5 mg/kg, ip administered 30 mins before test measured 6 mins test session after 2 mins habituation period by forced swimming test; format: functional, organism-based; set-up: dose 2.5 mg/kg
[14] = system: Mus musculus; assay: Antidepressant activity in Swiss albino mouse assessed as total immobility time at 5 mg/kg, ip administered 30 mins before test measured 6 mins test session after 2 mins habituation period by forced swimming test; format: functional, organism-based; set-up: dose 5 mg/kg
[15] = system: Mus musculus; assay: Effect on hypothermia in Swiss albino mouse assessed as change in rectal body temperature at 10 mg/kg, ip after 30 mins by inducible hypothermia test; format: functional, organism-based; set-up: dose 10 mg/kg
[16] = system: Mus musculus; assay: Effect on hypothermia in Swiss albino mouse assessed as change in rectal body temperature at 10 mg/kg, ip after 60 mins by inducible hypothermia test; format: functional, organism-based; set-up: dose 10 mg/kg
[17] = system: Mus musculus; assay: Effect on hypothermia in Swiss albino mouse assessed as change in rectal body temperature at 10 mg/kg, ip after 90 mins by inducible hypothermia test; format: functional, organism-based; set-up: dose 10 mg/kg
[18] = system: Mus musculus; assay: Effect on hypothermia in Swiss albino mouse assessed as change in rectal body temperature at 10 mg/kg, ip after 120 mins by inducible hypothermia test; format: functional, organism-based; set-up: dose 10 mg/kg
[19] = system: Mus musculus; assay: Effect on hypothermia in Swiss albino mouse assessed as change in rectal body temperature at 20 mg/kg, ip after 30 mins by inducible hypothermia test; format: functional, organism-based; set-up: dose 20 mg/kg
[20] = system: Mus musculus; assay: Effect on hypothermia in Swiss albino mouse assessed as change in rectal body temperature at 20 mg/kg, ip after 60 mins by inducible hypothermia test; format: functional, organism-based; set-up: dose 20 mg/kg
[21] = system: Mus musculus; assay: Effect on hypothermia in Swiss albino mouse assessed as change in rectal body temperature at 20 mg/kg, ip after 90 mins by inducible hypothermia test; format: functional, organism-based; set-up: dose 20 mg/kg
[22] = system: Mus musculus; assay: Effect on hypothermia in Swiss albino mouse assessed as change in rectal body temperature at 20 mg/kg, ip after 120 mins by inducible hypothermia test; format: functional, organism-based; set-up: dose 20 mg/kg
[23] = system: Mus musculus; assay: Effect on hypothermia in Swiss albino mouse assessed as change in rectal body temperature at 20 mg/kg, ip dosed 15 mins after 0.1 mg/kg, sc WAY 100635 challenge measured after 30 mins by inducible hypothermia test; format: functional, organism-based
[24] = system: Mus musculus; assay: Effect on hypothermia in Swiss albino mouse assessed as change in rectal body temperature at 20 mg/kg, ip dosed 15 mins after 0.1 mg/kg, sc WAY 100635 challenge measured after 60 mins by inducible hypothermia test; format: functional, organism-based
[25] = system: Mus musculus; assay: Antidepressant activity in Swiss albino mouse assessed as total immobility time at 10 mg/kg, ip administered 30 mins before test measured 6 mins test session after 2 mins habituation period by forced swimming test; format: functional, organism-based; set-up: dose 10 mg/kg
[26] = system: Mus musculus; assay: Antidepressant activity in Swiss albino mouse assessed as total immobility time at 20 mg/kg, ip administered 30 mins before test measured 6 mins test session after 2 mins habituation period by forced swimming test; format: functional, organism-based; set-up: dose 20 mg/kg
[27] = system: Mus musculus; assay: Effect on hypothermia in Swiss albino mouse assessed as change in rectal body temperature at 0.1 mg/kg, ip after 30 mins by inducible hypothermia test; format: functional, organism-based; set-up: dose 0.1 mg/kg
[28] = system: Mus musculus; assay: Effect on hypothermia in Swiss albino mouse assessed as change in rectal body temperature at 0.1 mg/kg, ip after 60 mins by inducible hypothermia test; format: functional, organism-based; set-up: dose 0.1 mg/kg
[29] = system: Mus musculus; assay: Effect on hypothermia in Swiss albino mouse assessed as change in rectal body temperature at 0.1 mg/kg, ip after 90 mins by inducible hypothermia test; format: functional, organism-based; set-up: dose 0.1 mg/kg
[30] = system: Mus musculus; assay: Effect on hypothermia in Swiss albino mouse assessed as change in rectal body temperature at 0.1 mg/kg, ip after 120 mins by inducible hypothermia test; format: functional, organism-based; set-up: dose 0.1 mg/kg
[31] = system: Mus musculus; assay: Reduction of 8-OH-DPAT-induced hypothermia in Swiss albino mouse at 0.1 mg/kg, ip administered 45 mins prior 8-OH-DPAT challenge measured after 15 mins by inducible hypothermia test; format: functional, organism-based; set-up: dose 0.1 mg/kg
[32] = system: Mus musculus; assay: Reduction of 8-OH-DPAT-induced hypothermia in Swiss albino mouse at 0.1 mg/kg, ip administered 45 mins prior 8-OH-DPAT challenge measured after 30 mins by inducible hypothermia test; format: functional, organism-based; set-up: dose 0.1 mg/kg
[33] = system: Mus musculus; assay: Reduction of 8-OH-DPAT-induced hypothermia in Swiss albino mouse at 0.1 mg/kg, ip administered 45 mins prior 8-OH-DPAT challenge measured after 45 mins by inducible hypothermia test; format: functional, organism-based; set-up: dose 0.1 mg/kg
[34] = system: Mus musculus; assay: Reduction of 8-OH-DPAT-induced hypothermia in Swiss albino mouse at 0.1 mg/kg, ip administered 45 mins prior 8-OH-DPAT challenge measured after 60 mins by inducible hypothermia test; format: functional, organism-based; set-up: dose 0.1 mg/kg

Structure (SMILES): Cc1ccccc1-c1c2n(c(=O)n(CCCCN3CCC(c4c(C)[nH]c5ccccc45)CC3)c1=O)CCCC2
- Ki [1]: 642 nM
- Ki [2]: 882 nM

Structure (SMILES): Cc1ccccc1-c1c2n(c(=O)n(CCCCN3CCC(c4c[nH]c5ccccc45)CC3)c1=O)CCCC2
- Ki [1]: 112 nM
- Ki [2]: 69.1 nM

Structure (SMILES): O=c1c(-c2ccc(Cl)cc2)c2n(c(=O)n1CCCCN1CCC(c3c[nH]c4ccccc34)CC1)CCCC2
- Ki [1]: 48.6 nM
- Ki [2]: 44.1 nM
- deltaT [3]: -1 °C
- deltaT [4]: -0.5 °C
- deltaT [5]: -0.4 °C
- deltaT [6]: -0.3 °C
- deltaT [7]: -0.3 °C
- deltaT [8]: -0.4 °C
- deltaT [9]: -0.1 °C
- deltaT [10]: -0.1 °C
- deltaT [11]: -0.2 °C
- deltaT [12]: -0.1 °C
- Activity [13]: inactive
- Activity [14]: inactive

Structure (SMILES): O=c1c(-c2ccccc2Cl)c2n(c(=O)n1CCCCN1CCC(c3c[nH]c4ccccc34)CC1)CCCC2
- Ki [1]: 62.3 nM
- Ki [2]: 147 nM
- deltaT [3]: -0.5 °C
- deltaT [4]: -0.2 °C
- deltaT [5]: -0.2 °C
- deltaT [6]: -0.1 °C
- deltaT [15]: -0.7 °C
- deltaT [16]: -0.2 °C
- deltaT [17]: -0.1 °C
- deltaT [18]: 0 °C
- deltaT [19]: -1 °C
- deltaT [20]: -0.6 °C
- deltaT [21]: -0.2 °C
- deltaT [22]: -0.1 °C

Structure (SMILES): Cc1ccc(-c2c3n(c(=O)n(CCCCN4CCC(c5c[nH]c6ccccc56)CC4)c2=O)CCCC3)cc1
- Ki [1]: 46.2 nM
- Ki [2]: 42.4 nM
- deltaT [3]: -0.5 °C
- deltaT [4]: -0.4 °C
- deltaT [5]: -0.3 °C
- deltaT [6]: -0.2 °C
- deltaT [15]: -0.6 °C
- deltaT [16]: -0.3 °C
- deltaT [17]: -0.2 °C
- deltaT [18]: -0.1 °C
- deltaT [19]: -1.3 °C
- deltaT [20]: -0.9 °C
- deltaT [21]: -0.4 °C
- deltaT [22]: -0.3 °C
- deltaT [23]: -0.4 °C
- deltaT [24]: -0.2 °C
- Activity [25]: inactive
- Activity [26]: inactive

Structure (SMILES): COc1ccc(-c2c3n(c(=O)n(CCCCN4CCC(c5c(C)[nH]c6ccccc56)CC4)c2=O)CCCC3)cc1
- Ki [1]: 153 nM
- Ki [2]: 184 nM

Structure (SMILES): CC(C)NCC(O)COc1cccc2[nH]ccc12 (stereo unspecified)
- deltaT [27]: -0.2 °C
- deltaT [28]: -0.1 °C
- deltaT [29]: -0.1 °C
- deltaT [30]: -0.1 °C
- deltaT [11]: -0.2 °C
- deltaT [12]: -0.1 °C
- deltaT [31]: -0.1 °C
- deltaT [32]: -0.1 °C
- deltaT [33]: -0.1 °C
- deltaT [34]: -0.1 °C

Structure (SMILES): Cc1[nH]c2ccccc2c1C1CCN(CCCCn2c(=O)c(-c3ccccc3F)c3n(c2=O)CCCC3)CC1
- Ki [1]: 303 nM
- Ki [2]: 1300 nM

Structure (SMILES): COc1ccccc1-c1c2n(c(=O)n(CCCCN3CCC(c4c(C)[nH]c5ccccc45)CC3)c1=O)CCCC2
- Ki [1]: 319 nM
- Ki [2]: 1300 nM
